The record followed here is patent US20080021030A1, “Substituted Pyrazoles As Ppar Agonists” (priority 2003, published 2008).

In one data set the target is T1, hPPAR delta (Homo sapiens, UniProt Q03181).
T1 construct: expressed in transfected cells; host or cells: CV-1 cells
T1 sequence (Q03181 211-439 limits assumed): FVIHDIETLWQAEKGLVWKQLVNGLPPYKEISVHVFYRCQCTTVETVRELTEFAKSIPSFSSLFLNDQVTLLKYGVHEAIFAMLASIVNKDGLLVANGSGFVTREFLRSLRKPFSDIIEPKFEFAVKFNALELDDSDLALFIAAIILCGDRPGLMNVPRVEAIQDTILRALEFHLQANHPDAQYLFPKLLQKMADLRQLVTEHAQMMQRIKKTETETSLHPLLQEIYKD
The data set is described as follows: Transient transfection (transactivation) assay in CV-1 cells, GAL4-PPAR LBD chimera, SPAP reporter. It counts as cell-based. The note with it: read-out: EC50 μM HPPARδ. The text has this:
(§1) Compounds were screened for functional potency in transient transfection assays in CV-1 cells for their ability to activate the PPAR subtypes (transactivation assay). A previously established chimeric receptor system was utilized to allow comparison of the relative transcriptional activity of the receptor subtypes on the same target gene and to prevent endogenous receptor activation from complicating the interpretation of results. See, for example, Lehmann, J. M.; Moore, L. B.; Smith-Oliver, T. A.; Wilkison, W. O.; Willson, T. M.; Kliewer, S. A., An antidiabetic thiazolidinedione is a high affinity ligand for peroxisome proliferator-activated receptor gamma (PPARgamma), J. Biol. Chem., 270, 12953-6 (1995). The ligand binding domains for murine and human PPAR alpha, PPAR gamma, and PPAR delta were each fused to the yeast transcription factor GAL4 DNA binding domain. CV-1 cells were transiently transfected with expression vectors for the respective PPAR chimera along with a reporter construct containing five copies of the GAL4 DNA binding site driving expression of secreted placental alkaline phosphatase (SPAP) and beta-galactosidase. After 16 h, the medium was exchanged to DME medium supplemented with 10% delipidated fetal calf serum and the test compound at the appropriate concentration. After an additional 24 h, cell extracts were prepared and assayed for alkaline phosphatase and β-galactosidase activity. Alkaline phosphatase activity was corrected for transfection efficiency using the beta-galactosidase activity as an internal standard (see, for example, Kliewer, S. A., et. al. Cell 83, 813-819 (1995)). Rosiglitazone (BRL 49653) was used as a positive control in the hPPAR gamma assay. The positive control in the hPPAR alpha assays was 2-4-[2-(3-[4-fluorophenyl]-1-heptylureido)ethyl]-phenoxy-(2-methyl propionic acid (WO 97/36579). The positive control for PPAR delta assays was 2-{2-methyl-4-[({4-methyl-2-{trifluoromethyl)phenyl]-1,3-thiazol-5-yl}methyl)sulfanyl]phenoxy}acetic acid (WO 01/00603). The positive control was (5-{4-[2-(Methyl-pyridin-2-yl-amino)-ethoxy]-benzyl}-thiazolidine-2,4-dione (J. Med. Chem. 1994, 37(23), 3977), for PPAR gamma.
(§2) Activities in three hPPAR subtypes are reported in the table and are expressed in micromolar.

The next data set deals with T2, hPPAR alpha (Homo sapiens, UniProt Q07869).
T2 construct: expressed in transfected cells; host or cells: CV-1 cells
T2 sequence (Q07869 239-466 limits assumed): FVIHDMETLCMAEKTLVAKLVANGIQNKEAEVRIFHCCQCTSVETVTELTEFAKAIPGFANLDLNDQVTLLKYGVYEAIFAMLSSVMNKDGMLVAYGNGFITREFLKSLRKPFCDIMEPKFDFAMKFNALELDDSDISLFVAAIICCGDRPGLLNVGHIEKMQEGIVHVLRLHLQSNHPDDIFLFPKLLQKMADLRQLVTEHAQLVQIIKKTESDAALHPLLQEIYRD
Described as above. In kind it is cell-based. As to conditions: read-out: EC50 μM HPPARα.
Excerpt: as §1, §2

The target of a further data set is T3, hPPAR gamma (Homo sapiens, UniProt P37231).
T3 construct: expressed in transfected cells; host or cells: CV-1 cells
T3 sequence (P37231 238-503 limits assumed): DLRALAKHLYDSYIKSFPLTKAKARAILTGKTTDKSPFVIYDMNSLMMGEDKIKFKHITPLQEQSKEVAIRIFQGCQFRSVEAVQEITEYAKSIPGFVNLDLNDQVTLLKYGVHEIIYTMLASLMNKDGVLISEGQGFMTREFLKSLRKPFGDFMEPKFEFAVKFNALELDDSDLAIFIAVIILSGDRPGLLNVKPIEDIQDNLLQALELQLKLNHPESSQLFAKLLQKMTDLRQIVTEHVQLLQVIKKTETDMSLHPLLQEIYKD
Put plainly: Transient transfection (transactivation) assay in CV-1 cells, GAL4-PPAR LBD chimera, SPAP reporter. In kind it is cell-based. The note with it: read-out: EC50 μM HPPARγ. The source says:
Compounds were screened for functional potency in transient transfection assays in CV-1 cells for their ability to activate the PPAR subtypes (transactivation assay). A previously established chimeric receptor system was utilized to allow comparison of the relative transcriptional activity of the receptor subtypes on the same target gene and to prevent endogenous receptor activation from complicating the interpretation of results. […] The ligand binding domains for murine and human PPAR alpha, PPAR gamma, and PPAR delta were each fused to the yeast transcription factor GAL4 DNA binding domain. CV-1 cells were transiently transfected with expression vectors for the respective PPAR chimera along with a reporter construct containing five copies of the GAL4 DNA binding site driving expression of secreted placental alkaline phosphatase (SPAP) and beta-galactosidase. After 16 h, the medium was exchanged to DME medium supplemented with 10% delipidated fetal calf serum and the test compound at the appropriate concentration. After an additional 24 h, cell extracts were prepared and assayed for alkaline phosphatase and β-galactosidase activity.

Structures are written as SMILES.

`Cc1cc(CNC(=O)c2cc(-c3ccc(C(C)(C)C)cc3)nn2C)cc(C)c1OC(C)(C)C(=O)O` [Example 26, 2-{4-[({[3-(4-tert-butylphenyl)-1-methyl-1H-pyrazol-5-yl]carbonyl}amino)methyl]-2,6-dimethylphenoxy}-2-methylpropanoic acid] had a melting point of more than 122 °C. The 50% effective concentration (EC50) at hPPAR delta came to 1 µM. For the same compound, the EC50 at hPPAR alpha came out at 0.003 µM. In addition, the EC50 at hPPAR gamma was found to be 0.016 µM.
In turn, `Cc1cc(CNC(=O)c2cc(-c3ccc(CC(C)C)cc3)n(C)n2)cc(Cl)c1OC(C)(C)C(=O)O` [Example 27, 2-{2-chloro-4-[({[5-(4-isobutylphenyl)-1-methyl-1H-pyrazol-3-yl]carbonyl}amino)methyl]-6-methylphenoxy}-2-methylpropanoic acid] gave a melting point of 75 to 80 °C. Also, the 50% effective concentration (EC50) at hPPAR delta was determined as 0.206 µM. Further, the concentration for a half-maximal effect (EC50) at hPPAR alpha is less than 0.001 µM. Also, at hPPAR gamma, the EC50 turned out to be 0.031 µM.
On to `Cc1cc(CNC(=O)c2cc(-c3cccc(-c4ccccc4)c3)nn2C)ccc1OC(C)(C)C(=O)O` [Example 28, 2-[4-({[(3-biphenyl-3-yl-1-methyl-1H-pyrazol-5-yl)carbonyl]amino}methyl)-2-methylphenoxy]-2-methylpropanoic acid], for which the melting point amounted to 88 °C. On hPPAR delta, the EC50 was more than 25 µM. The EC50 at hPPAR alpha worked out at 0.589 µM. Further, at hPPAR gamma, the EC50 turned out to be 1.47 µM.
On the same counts, the results for `Cc1cc(CNC(=O)c2cc(-c3ccc(Br)cc3)n(C)n2)ccc1OC(C)(C)C(=O)O` [Example 30, 2-({4-[({[5-(4-bromophenyl)-1-methyl-1H-pyrazol-3-yl]carbonyl}amino)methyl]-2-methylphenyl}oxy)-2-methylpropanoic acid] are 84 to 92 °C, 3.12 µM, 0.046 µM and 0.229 µM.
`Cc1cc(CNC(=O)c2cc(-c3ccc(-c4cccs4)cc3)n(C)n2)ccc1OC(C)(C)C(=O)O` [Example 32, 2-methyl-2-[(2-methyl-4-{[({1-methyl-5-[4-(2-thienyl)phenyl]-1H-pyrazol-3-yl}carbonyl)amino]methyl}phenyl)oxy]propanoic acid] registered a melting point of 92 °C. Besides, at hPPAR delta, the EC50 was more than 25 µM. Moreover, the EC50 at hPPAR alpha was 0.015 µM. For the same compound, the 50% effective concentration (EC50) on hPPAR gamma was 0.023 µM.
In the case of `Cc1cc(CNC(=O)c2cc(-c3ccc(-c4ccoc4)cc3)n(C)n2)ccc1OC(C)(C)C(=O)O` [Example 33, 2-[(4-{[({5-[4-(3-furanyl)phenyl]-1-methyl-1H-pyrazol-3-yl}carbonyl)amino]methyl}-2-methylphenyl)oxy]-2-methylpropanoic acid], the melting point stood at 102 °C. Moreover, on hPPAR delta, the EC50 amounted to 1.64 µM. In addition, the 50% effective concentration (EC50) at hPPAR alpha amounted to 0.004 µM.
On the same counts, the results for `Cc1cc(CNC(=O)c2cc(-c3ccc(-c4ccncc4)cc3)n(C)n2)ccc1OC(C)(C)C(=O)O` [Example 34, 2-methyl-2-[(2-methyl-4-{[({1-methyl-5-[4-(4-pyridinyl)phenyl]-1H-pyrazol-3-yl}carbonyl)amino]methyl}phenyl)oxy]propanoic acid] are 264 °C (dec.), more than 25 µM and 0.734 µM.
The compound `Cc1cc(CNC(=O)c2cc(-c3ccc(-c4ccco4)cc3)n(C)n2)ccc1OC(C)(C)C(=O)O` [Example 35, 2-[(4-{[({5-[4-(2-furanyl)phenyl]-1-methyl-1H-prazol-3-yl}carbonyl)amino]methyl}-2-methylphenyl)oxy]-2-methylpropanoic acid] returned a melting point of 96 °C. Also, the concentration giving a half-maximal response (EC50) at hPPAR delta is more than 25 µM. Besides, at hPPAR alpha, the EC50 was found to be 0.024 µM. For the same compound, the EC50 on hPPAR gamma was found to be 0.054 µM.
As to `Cc1cc(CNC(=O)c2cc(-c3ccc(-c4ccccc4C)cc3)nn2C)ccc1OC(C)(C)C(=O)O` [Example 36, 2-methyl-2-{2-methyl-4-[({[1-methyl-3-(2′-methylbiphenyl-4-yl)-1H-pyrazol-5-yl]carbonyl}amino)methyl]phenoxy}propanoic acid], the melting point was in the range of 90 to 100 °C. The concentration giving a half-maximal response (EC50) at hPPAR delta was determined as 5.17 µM. The EC50 at hPPAR alpha came to 0.176 µM. The EC50 at hPPAR gamma is 0.037 µM.
`CCCCc1ccc(-c2cc(C(=O)NCc3cc(C)c(OC(C)(C)C(=O)O)c(C)c3)nn2C)cc1` [Example 37, 2-{4-[({[5-(4-butylphenyl)-1-methyl-1H-pyrazol-3-yl]carbonyl}amino)methyl]-2,6-dimethylphenoxy}-2-methylpropanoic acid] had a melting point of 72 °C. The EC50 on hPPAR delta is 0.449 µM. Also, at hPPAR alpha, the EC50 came out at 0.006 µM. The EC50 at hPPAR gamma was 0.021 µM.
On the same counts, the results for `CCCCc1ccc(-c2cc(C(=O)NCc3cc(C)c(OC(C)(C)C(=O)O)c(Cl)c3)nn2C)cc1` [Example 38, 2-{4-[({[5-(4-butylphenyl)-1-methyl-1H-pyrazol-3-yl]carbonyl}amino)methyl]-2-chloro-6-methylphenoxy}-2-methylpropanoic acid] are 74 °C, more than 25 µM, 0.01 µM and 0.072 µM.
With `Cc1cc(CNC(=O)c2cc(-c3ccc(C(C)(C)C)cc3)nn2CCN2CCOCC2)ccc1OC(C)(C)C(=O)O` [Example 55, 2-[(4-{[({3-[4-(1,1-dimethylethyl)phenyl]-1-[2-(4-morpholinyl)ethyl]-1H-pyrazol-5-yl}carbonyl)amino]methyl}-2-methylphenyl)oxy]-2-methyl propanoic acid], the concentration giving a half-maximal response (EC50) on hPPAR delta is more than 25 µM; on hPPAR alpha, 0.444 µM; on hPPAR gamma, 0.748 µM.
As for `C=CCn1nc(-c2ccc(C(C)(C)C)cc2)cc1C(=O)NCc1ccc(OC(C)(C)C(=O)O)cc1` [Example 60, 2-({4-[({[3-[4-(1,1-dimethylethyl)phenyl]-1-(2-propen-1-yl)-1H-pyrazol-5-yl]carbonyl}amino)methyl]phenyl}oxy)-2-methylpropanoic acid], the EC50 on hPPAR delta turned out to be 5.93 µM; at hPPAR alpha it was 0.192 µM; on hPPAR gamma, 1.38 µM.
`Cc1cc(CNC(=O)c2cc(-c3ccc(C(C)(C)C)cc3)nn2Cc2ccccc2)ccc1OC(C)(C)C(=O)O` [Example 61, 2-({4-[({[3-[4-(1,1-dimethylethyl)phenyl]-1-(phenylmethyl)-1H-pyrazol-5-yl]carbonyl}amino)methyl]-2-methylphenyl}oxy)-2-methylpropanoic acid]: the values for the EC50 at hPPAR delta, on hPPAR alpha and at hPPAR gamma were 2.42 µM, 0.115 µM and 0.147 µM, respectively.
On the same counts, the results for `C=CCn1nc(C(=O)NCc2ccc(OC(C)(C)C(=O)O)c(C)c2)cc1-c1ccc(C(C)(C)C)cc1` [Example 62, 2-({4-[({[5-[4-(1,1-dimethylethyl)phenyl]-1-(2-propen-1-yl)-1H-pyrazol-3-yl]carbonyl}amino)methyl]-2-methylphenyl}oxy)-2-methylpropanoic acid] are more than 25 µM, 0.032 µM and 0.069 µM.

A word on the EC50: it is the concentration that produces a half-maximal response. By melting point is commonly meant the temperature of the solid-liquid transition.
